Values quoted from earlier work in patent US20140171372A1, “Treatments for Alzheimer's disease” (priority 2012, published 2014).

Legend:
[1] = radiolabeled, injected systemically into animals
[2] = treatment of spinal injury, Parkinson disease and AD
AD patients = details: intracerebroventricular injection, limited number of AD patients

| Compound | neuroprotective effect in cultured cells (cultured cells) | protective effects relative to GM1 (cultured cells; cultured cells and animal models, compared with GM1) | neuroprotective effect in animal models (animal models) | distribution after systemic injection [1] | tolerability in Human [2] | clinical improvement in AD patients (AD patients) | outcome of clinical trial in AD (patients) |
| --- | --- | --- | --- | --- | --- | --- | --- |
| CCCCCCCCCCCCC/C=C/C(O)C(COC1OC(CO)C(OC2OC(CO)C(OC3OC(CO)C(O)C(OC4OC(CO)C(O)C(O)C4O)C3NC(C)=O)C(OC3(C(=O)O)CC(O)C(NC(C)=O)C(C(O)C(O)CO)O3)C2O)C(O)C1O)NC(=O)C(Cl)Cl (stereo not drawn) [LIGA20] | neuroprotective | more potent protective effects than GM1 | neuroprotective | – | – | – | – |
| GM1 | neuroprotective | – | neuroprotective | reach neuronal synapses and neuromuscular junctions | well tolerated | some degree of improvement | – |
| Solanezumab | – | – | – | – | – | – | failed |
